Measured values as given in ChEMBL document CHEMBL4627355, “Chemical reactivity and uses of 1-phenyl-3-methyl-5-pyrazolone (PMP), also known as edaravone” (Bioorg Med Chem, 2020).

Assays:
[1] = Inhibition of lipid peroxidation; type: functional
[2] = Antioxidant activity assessed as copper-chelating scavenging activity; type: functional

| IC50 [1] [µM] | IC50 [2] [µM] | SMILES |
| --- | --- | --- |
| 4.5 | 9 | CC1=NN(c2ccccc2)C(=O)C1 [EDARAVONE] |
| 3.5 | 3 | O=C1CC(c2ccccc2)=NN1c1ccccc1 |
